In US4021544A, “Complement inhibitors” (American Cyanamid Company, priority 1976, dated 1977):
Where “and” joins values, the source holds several entries; their conditions need not be identical. Equal values may be shown once. Where a name gives a salt, the structure may show the parent alone.

Key:
[1] = tested on: shunt pathway activated by cobra venom factor; assay: Test, Code 036 (C-Shunt inhibitor); type: cell-based; details: Table I, lysis of fragile human erythrocytes in autologous serum, serial two-fold dilution assay, higher well number indicates higher activity
From the text: (§1) An active inhibitor protects C2 from C1 and C4; (ii) Test, Code 035 (C3- C9 inhibitor) - This test determines the ability of the late components of human complement (C3-C9) to lyse EAC 142 in the presence of appropriate dilutions of the test compound. An active inhibitor protects EAC 142 from lysis by human C3-C9; (iii) Test, Code 036 (C-Shunt inhibitor) - In this test human erythrocytes rendered fragile are lysed in autologous serum via the shunt pathway activated by cobra venom factor in the presence of appropriate dilutions of the test compound. Inhibition of the shunt pathway results in failure of lysis; (iv) Forssman Vasculitis Test - Here, the well known complement dependent lesion, Forssman vasculitis, is produced in guinea pigs by intradermal injection of rabbit anti-forssman antiserum. The lesion is measured in terms of diameter, edema and hemorrhage and the extent to which a combined index of these is inhibited by prior intraperitoneal injection of the test compound at 200 mg/kg in then reported, unless otherwise stated; (v) Forssman Shock Test -- Lethal shock is produced in guinea pigs by an i.v. injection of anti-Forssman antiserum and the harmonic mean death time of treated guinea pigs is compared with that of simultaneous controls; (vi) Complement Level Reduction Test -- In this test, the above dosed guinea pigs, or others, are bled for serum and the complement level is determined in undiluted serum by the capillary tube method of U.S. Pat. No. 3,876,376 and compared to undosed control guinea pigs; and (vii) Cap 50 Test -- Here, appropriate amounts of the test compound are added to a pool of guinea pig serum in vitro, after which the undiluted serum capillary tube assay referred to above is run. The concentration of compound inhibiting 50% is reported.

activated human C1 = activated human C1 (Homo sapiens, UniProt P09871); assay: Test, Code 026 (C1 inhibitor); type: biochemical; details: for 026 Wells: Table I, serial two-fold dilution assay, higher well number indicates higher activity; for LOGARITHMIC DIFFERENCE EXPRESSED AS WELLS / COMPLEMENT INHIBITING ACTIVITY (WELLS) CODE 026 / INTRINSIC THERAPEUTICAL INDEX: Table II; for LOGARITHMIC DIFFERENCE EXPRESSED AS WELLS: Code 026 wells minus AC wells (base 2); for COMPLEMENT INHIBITING ACTIVITY (WELLS) CODE 026: highest active serial dilution; for INTRINSIC THERAPEUTICAL INDEX: antilogarithm (base 2) of difference between Code 026 wells and AC wells
From the text: as §1

Citrated sheep plasma = assay: In vitro anti-coagulant activity (AC) test; details: for A.C. Wells: Table I, clot inhibition, recalcified citrated sheep plasma, serial two-fold dilutions; for ANTI-COAGULANT ACTIVITY (WELLS) AC: Table II, highest active serial dilution
Experimental: The sheep RBC'S, kept in suspension throughout the clotting incubation time, become enmeshed in the fibrin matrix if a clot forms. Upon centrifugation of the plate untrapped RBC's form buttons, the sizes of which correspond to the degree of clot inhibition; this providing a measure of anti-coagulant activity (AC).

[2] = tested on: late components of human complement (C3-C9); assay: Test, Code 035 (C3-C9 inhibitor); type: biochemical; details: Table I; lysis of EAC 142; serial two-fold dilution assay, higher well number indicates higher activity
From the text: as §1

For `O=S(=O)(O)OC[C@H]1O[C@H](O[C@H]2[C@H](OS(=O)(=O)O)[C@@H](OS(=O)(=O)O)[C@@H](O[C@H]3[C@H](OS(=O)(=O)O)[C@@H](OS(=O)(=O)O)[C@@H](O[C@H]4[C@H](OS(=O)(=O)O)[C@@H](OS(=O)(=O)O)C(OS(=O)(=O)O)O[C@@H]4COS(=O)(=O)O)O[C@@H]3COS(=O)(=O)O)O[C@@H]2COS(=O)(=O)O)[C@H](OS(=O)(=O)O)[C@@H](OS(=O)(=O)O)[C@@H]1O[C@H]1O[C@H](COS(=O)(=O)O)[C@@H](O[C@H]2O[C@H](COS(=O)(=O)O)[C@@H](O[C@H]3O[C@H](COS(=O)(=O)O)[C@@H](OS(=O)(=O)O)[C@H](OS(=O)(=O)O)[C@H]3OS(=O)(=O)O)[C@H](OS(=O)(=O)O)[C@H]2OS(=O)(=O)O)[C@H](OS(=O)(=O)O)[C@H]1OS(=O)(=O)O` (stereo partly drawn) [Maltoheptaose Poly(H-)sulfate Sodium Salt], the “036 Wells” value ([1]; Sodium Salt) was 6 Wells and 5 Wells.
For `O=S(=O)(O)OC[C@H]1O[C@H](O[C@H]2[C@H](OS(=O)(=O)O)[C@@H](OS(=O)(=O)O)[C@@H](O[C@H]3[C@H](OS(=O)(=O)O)[C@@H](OS(=O)(=O)O)[C@@H](O[C@H]4[C@H](OS(=O)(=O)O)[C@@H](OS(=O)(=O)O)C(OS(=O)(=O)O)O[C@@H]4COS(=O)(=O)O)O[C@@H]3COS(=O)(=O)O)O[C@@H]2COS(=O)(=O)O)[C@H](OS(=O)(=O)O)[C@@H](OS(=O)(=O)O)[C@@H]1O[C@H]1O[C@H](COS(=O)(=O)O)[C@@H](O[C@H]2O[C@H](COS(=O)(=O)O)[C@@H](O[C@H]3O[C@H](COS(=O)(=O)O)[C@@H](OS(=O)(=O)O)[C@H](OS(=O)(=O)O)[C@H]3OS(=O)(=O)O)[C@H](OS(=O)(=O)O)[C@H]2OS(=O)(=O)O)[C@H](OS(=O)(=O)O)[C@H]1OS(=O)(=O)O` (stereo partly drawn) [Maltoheptaose Poly(H-)sulfate Trimethylamine Salt], the “026 Wells” value (activated human C1) was “+9 Wells”, the “LOGARITHMIC DIFFERENCE EXPRESSED AS WELLS” value (activated human C1) was “+5 WELLS” and the “COMPLEMENT INHIBITING ACTIVITY (WELLS) CODE 026” value (“COMPLEMENT INHIBITING ACTIVITY” for short) (activated human C1) was “+9 WELLS”. The “036 Wells” value [1] was 5 Wells, the “A.C. Wells” value (Citrated sheep plasma) was “+4 Wells” and the “ANTI-COAGULANT ACTIVITY (WELLS) AC” value (Citrated sheep plasma) was “+4 WELLS”.
In the case of `O=S(=O)(O)OC[C@H]1O[C@H](O[C@H]2[C@H](OS(=O)(=O)O)[C@@H](OS(=O)(=O)O)C(OS(=O)(=O)O)O[C@@H]2COS(=O)(=O)O)[C@H](OS(=O)(=O)O)[C@@H](OS(=O)(=O)O)[C@@H]1OS(=O)(=O)O` (stereo partly drawn) [Maltose Poly(H-)Sulfate Trimethylamine Salt], the “LOGARITHMIC DIFFERENCE EXPRESSED AS WELLS” value (activated human C1) is reported as “+10 WELLS”, the “INTRINSIC THERAPEUTICAL INDEX” value (activated human C1) is reported as 1024 and the “COMPLEMENT INHIBITING ACTIVITY” value (activated human C1) is reported as “+8 WELLS”. The “035 Wells” value [2] was “Neg”, the “036 Wells” value [1] was “Neg” and the “A.C. Wells” value (Citrated sheep plasma) was -2 Wells. For the same compound, the “ANTI-COAGULANT ACTIVITY (WELLS) AC” value (Citrated sheep plasma) was -2 WELLS.
With `O=S(=O)(O)OC[C@H]1O[C@H](O[C@H]2[C@H](OS(=O)(=O)O)[C@@H](OS(=O)(=O)O)C(OS(=O)(=O)O)O[C@@H]2COS(=O)(=O)O)[C@H](OS(=O)(=O)O)[C@@H](OS(=O)(=O)O)[C@@H]1OS(=O)(=O)O` (stereo partly drawn) [Maltose Poly(H--) sulfate sodium salt, Maltose Poly (H-)Sulfate Sodium Salt] the “COMPLEMENT INHIBITING ACTIVITY” value (activated human C1; Sodium Salt) was “+12 WELLS”, the “A.C. Wells” value (Citrated sheep plasma; Sodium Salt) was “+2 Wells” and the “ANTI-COAGULANT ACTIVITY (WELLS) AC” value (Citrated sheep plasma; Sodium Salt) was “+2 WELLS”.
Maltotriose Poly(H-)sulfate Sodium Salt was tested, and the “026 Wells” value (activated human C1) was “+9 Wells”, the “LOGARITHMIC DIFFERENCE EXPRESSED AS WELLS” value (activated human C1) was “+10 WELLS” and the “INTRINSIC THERAPEUTICAL INDEX” value (activated human C1) was 1024. The “COMPLEMENT INHIBITING ACTIVITY” value (activated human C1) was “+9 WELLS”, the “035 Wells” value [2] was “Neg” and the “036 Wells” value [1] was “Neg”. The “A.C. Wells” value (Citrated sheep plasma) was -1 Wells and the “ANTI-COAGULANT ACTIVITY (WELLS) AC” value (Citrated sheep plasma) was -1 WELLS.
For “Maltotriose Poly(H-)sulfate Trimethylamine Salt”, the “026 Wells” value (activated human C1) was “+7 Wells”, the “LOGARITHMIC DIFFERENCE EXPRESSED AS WELLS” value (activated human C1) was “+8 WELLS” and the “INTRINSIC THERAPEUTICAL INDEX” value (activated human C1) was 256. The “COMPLEMENT INHIBITING ACTIVITY” value (activated human C1) was “+7 WELLS”, the “035 Wells” value [2] was “Neg” and the “036 Wells” value [1] was “Neg”. For the same compound, the “A.C. Wells” value (Citrated sheep plasma) was -1 Wells and the “ANTI-COAGULANT ACTIVITY (WELLS) AC” value (Citrated sheep plasma) was -1 WELLS.
